Measured values published in US9540385B2, “Pyrrolopyrimidine compounds as kinase inhibitors” (Pharmacyclics LLC, priority 2012, dated 2017).

Assays:
Format in all cases: biochemical
Conditions in all cases: kinase assay by one of methods A, B or C
BTK = target: T1, BTK (Homo sapiens, UniProt Q06187); experiment: Btk in vitro inhibitory activity / inhibition of a panel of kinases (TR-FRET, mobility shift or radiometric filter binding)
T1 construct: purified from insect cells as a full-length construct containing a N-terminal 6×-His tag; His6 (N); made in house; host or cells: insect cells (baculovirus, Sf21)
Protocol: (§1) Btk kinase activity is determined using a time-resolved fluorescence resonance energy transfer (TR-FRET) methodology. Measurements are performed in a reaction volume of 50 μL using 96-well assay plates. Kinase enzyme, inhibitor, ATP (at the Km for the kinase), and 1 μM peptide substrate (Biotin-AVLESEEELYSSARQ-NH2) are incubated in a reaction buffer composed of 20 mM Tris, 50 mM NaCl, MgCl2 (5-25 mM depending on the kinase), MnCl2 (0-10 mM), 1 mM DTT, 0.1 mM EDTA, 0.01% bovine serum albumin, 0.005% Tween-20, and 10% DMSO at pH 7.4 for one hour. The reaction is quenched by the addition of 1.2 equivalents of EDTA (relative to divalent cation) in 25 μL of 1× Lance buffer (Perkin-Elmer). Streptavidin-APC (Perkin-Elmer) and Eu-labeled p-Tyr100 antibody (Perkin-Elmer) in 1× Lance buffer are added in a 25 μL volume to give final concentrations of 100 nM and 2.5 nM, respectively, and the mixture is allowed to incubate for one hour. The TR-FRET signal is measured on a multimode plate reader with an excitation wavelength (λEx) of 330 nm and detection wavelengths (λEm) of 615 and 665 nm. Activity is determined by the ratio of the fluorescence at 665 nm to that at 615 nm. For each compound, enzyme activity is measured at various concentrations of compound. Negative control reactions are performed in the absence of inhibitor in replicates of six, and two no-enzyme controls are used to determine baseline fluorescence levels. Inhibition constants, Ki(app), ware obtained using the program BatchKi (Kuzmic et al. (2000), Anal. Biochem. 286:45-50). IC50s are obtained according to the equation: IC50={Ki(app)/(1+[ATP]/Km^ATP)}+[E]total/2;
(§2) For all kinases, [ATP]=Km^ATP, [Btk]total=0.5 nM and [Lck]total=6 nM.
(§3) Kinase activity is measured in vitro using electrophoretic mobility shift assay. The kinase reactions are assembled in a total volume of 25 μL in 384 well plates. The reactions comprise: BTK enzyme (1 nM, N-terminal His6-tagged, recombinant, full-length, human BTK purified from baculovirus Sf21 insect cell system), inhibitor, ATP ([…] the apparent Km for the kinase), fluorescently labeled peptide substrate (1 μM, FAM-GEEPLYWSFPAKKK-NH2) in a reaction buffer composed of 100 mM HEPES, pH7.5, 5 mM MgCl2 1 mM DTT, 0.1% bovine serum albumin, 0.01% Triton X-100, and 1% DMSO. The reaction is incubated for one hour and is quenched by the addition of 45 μL of termination buffer (100 mM HEPES, pH7.5, 0.01% Triton X-100, 30 mM EDTA). The terminated reactions are analyzed using 12 channel LabChip® 3000 microfluidic detection instrument (Caliper Life Sciences). The enzymatic phosphorylation of the peptide results in a change in net charge, enabling electrophoretic separation of product from substrate peptide. As substrate and product peptides are separated, two peaks of fluorescence are observed. Change in the relative fluorescence intensity of the substrate and product peaks is the parameter measured, reflecting enzyme activity. In the presence of an inhibitor, the ratio between product and substrate is altered: the signal of the product decreases, while the signal of the substrate increases.
(§4) Activity in each sample is determined as the product to sum ratio (PSR):P/(S+P), where P is the peak height of the product peptide and S is the peak height of the substrate peptide. For each compound, enzyme activity is measured at various concentrations (12 concentrations of compound spaced by 3× dilution intervals). Negative control samples (0%-inhibition in the absence of inhibitor) and positive control samples (100%-inhibition, in the presence of 20 mM EDTA) are assembled in replicates of four and are used to calculate %-inhibition values for each inhibitor at each concentration. Percent inhibition (Pinh) is determined using following equation: […]

LCK = LCK (Homo sapiens, UniProt P06239); experiment: Inhibition of a panel of kinases: LCK
Protocol: as §1, §2, §3, §4

EGFR = EGFR (Homo sapiens, UniProt P00533); experiment: Inhibition of a panel of kinases: EGFR
Protocol: as §1, §2, §3, §4

Chain of EGFR (P00533 25-1210, species assumed): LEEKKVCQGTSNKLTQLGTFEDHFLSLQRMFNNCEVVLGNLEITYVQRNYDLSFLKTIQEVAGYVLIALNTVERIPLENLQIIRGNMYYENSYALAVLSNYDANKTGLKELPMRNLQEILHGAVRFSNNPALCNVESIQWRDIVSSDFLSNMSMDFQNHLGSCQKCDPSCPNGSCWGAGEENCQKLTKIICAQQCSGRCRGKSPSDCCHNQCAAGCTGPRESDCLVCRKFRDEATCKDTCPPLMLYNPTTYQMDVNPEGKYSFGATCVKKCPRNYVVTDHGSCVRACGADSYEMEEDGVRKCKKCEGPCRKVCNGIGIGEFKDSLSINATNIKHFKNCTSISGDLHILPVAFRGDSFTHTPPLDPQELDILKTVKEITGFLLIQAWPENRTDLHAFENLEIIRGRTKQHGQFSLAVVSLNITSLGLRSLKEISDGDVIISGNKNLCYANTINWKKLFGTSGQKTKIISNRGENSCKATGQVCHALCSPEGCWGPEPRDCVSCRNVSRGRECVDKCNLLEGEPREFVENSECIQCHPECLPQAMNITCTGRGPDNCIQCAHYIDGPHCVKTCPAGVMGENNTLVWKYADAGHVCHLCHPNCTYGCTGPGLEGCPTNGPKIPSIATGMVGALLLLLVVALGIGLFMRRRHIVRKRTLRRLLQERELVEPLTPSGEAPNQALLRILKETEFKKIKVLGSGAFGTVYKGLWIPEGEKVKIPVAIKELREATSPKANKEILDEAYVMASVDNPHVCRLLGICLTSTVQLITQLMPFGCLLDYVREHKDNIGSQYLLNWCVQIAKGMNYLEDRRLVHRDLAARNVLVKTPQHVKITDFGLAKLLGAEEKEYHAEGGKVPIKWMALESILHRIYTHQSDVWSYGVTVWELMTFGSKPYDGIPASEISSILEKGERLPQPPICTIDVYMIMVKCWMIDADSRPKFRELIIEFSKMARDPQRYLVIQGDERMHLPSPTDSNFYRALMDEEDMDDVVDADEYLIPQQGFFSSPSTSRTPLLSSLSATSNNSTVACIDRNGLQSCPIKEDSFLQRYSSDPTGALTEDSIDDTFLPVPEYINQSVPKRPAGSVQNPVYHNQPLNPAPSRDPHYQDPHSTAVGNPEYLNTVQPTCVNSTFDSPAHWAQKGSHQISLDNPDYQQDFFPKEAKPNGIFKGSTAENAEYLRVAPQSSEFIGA
Chain of LCK (P06239 whole entry, species assumed): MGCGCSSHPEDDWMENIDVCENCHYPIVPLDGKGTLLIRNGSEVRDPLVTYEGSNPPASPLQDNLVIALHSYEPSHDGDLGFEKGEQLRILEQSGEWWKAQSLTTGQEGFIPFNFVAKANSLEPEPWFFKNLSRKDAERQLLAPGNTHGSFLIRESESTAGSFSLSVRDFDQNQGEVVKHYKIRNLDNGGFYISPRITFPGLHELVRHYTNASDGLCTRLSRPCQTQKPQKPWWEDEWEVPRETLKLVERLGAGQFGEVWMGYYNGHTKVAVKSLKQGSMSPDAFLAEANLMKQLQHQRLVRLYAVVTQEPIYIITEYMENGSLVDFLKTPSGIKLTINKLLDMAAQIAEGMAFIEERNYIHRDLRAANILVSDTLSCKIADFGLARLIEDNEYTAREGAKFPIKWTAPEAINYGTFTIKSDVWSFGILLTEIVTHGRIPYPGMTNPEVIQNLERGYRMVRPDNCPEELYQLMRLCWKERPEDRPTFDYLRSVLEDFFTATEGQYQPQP
T1 sequence (Q06187 whole entry): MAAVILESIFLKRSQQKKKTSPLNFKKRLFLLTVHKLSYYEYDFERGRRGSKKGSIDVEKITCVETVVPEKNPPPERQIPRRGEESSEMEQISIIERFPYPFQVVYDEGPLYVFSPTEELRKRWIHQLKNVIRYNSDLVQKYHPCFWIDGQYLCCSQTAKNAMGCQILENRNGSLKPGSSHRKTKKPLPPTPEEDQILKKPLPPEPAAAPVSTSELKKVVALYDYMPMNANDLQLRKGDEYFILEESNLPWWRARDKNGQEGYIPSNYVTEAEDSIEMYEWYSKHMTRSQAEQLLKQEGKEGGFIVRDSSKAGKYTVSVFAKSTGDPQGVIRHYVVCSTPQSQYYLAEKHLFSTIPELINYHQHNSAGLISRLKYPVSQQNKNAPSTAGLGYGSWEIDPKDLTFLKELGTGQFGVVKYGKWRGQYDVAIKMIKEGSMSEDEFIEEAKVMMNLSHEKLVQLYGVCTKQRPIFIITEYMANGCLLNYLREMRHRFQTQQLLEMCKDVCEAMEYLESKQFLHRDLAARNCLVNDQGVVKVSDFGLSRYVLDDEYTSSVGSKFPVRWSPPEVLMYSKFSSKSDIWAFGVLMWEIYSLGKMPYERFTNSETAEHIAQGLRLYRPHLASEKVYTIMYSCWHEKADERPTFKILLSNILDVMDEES

SMILES | IC50 (BTK) | IC50 (LCK) | IC50 (EGFR)
CN(C)C/C=C/C(=O)N1CC[C@@H](n2c(Cl)c(-c3ccc(Cl)cc3)c3c(N)ncnc32)C1 [Compound 40, (R,E)-1-(3-(4-amino-6-chloro-5-(4-chlorophenyl)-7H-pyrrolo[2,3-d]pyrimidin-7-yl)pyrrolidin-1-yl)-4-(dimethylamino)but-2-en-1-one] | < 100 nM | 100 to 1000 nM | 100 to 1000 nM
Cc1c(-c2ccc(Oc3ccccc3)cc2)c2c(N)ncnc2n1[C@@H]1CCN(C(=O)/C=C/CN(C)C)C1 [Compound 15, (R,E)-1-(3-(4-amino-6-methyl-5-(4-phenoxyphenyl)-7H-pyrrolo[2,3-d]pyrimidin-7-yl)pyrrolidin-1-yl)-4-(dimethylamino)but-2-en-1-one] | < 100 nM | < 100 nM | 1000 to 10000 nM
CN(C)C/C=C/C(=O)N1CC[C@@H](n2c(F)c(-c3ccc(Oc4ccccc4)cc3)c3c(N)ncnc32)C1 [Compound 13, (R,E)-1-(3-(4-amino-6-fluoro-5-(4-phenoxyphenyl)-7H-pyrrolo[2,3-d]pyrimidin-7-yl)pyrrolidin-1-yl)-4-(dimethylamino)but-2-en-1-one] | < 100 nM | < 100 nM | 1000 to 10000 nM
C=CC(=O)N1CC[C@@H](n2c(Cl)c(-c3ccc(Cl)cc3)c3c(N)ncnc32)C1 [Compound 39, (R)-1-(3-(4-amino-6-chloro-5-(4-chlorophenyl)-7H-pyrrolo[2,3-d]pyrimidin-7-yl)pyrrolidin-1-yl)prop-2-en-1-one] | < 100 nM | 100 to 1000 nM | < 100 nM
CN(C/C=C/C(=O)N1CC[C@@H](n2c(Cl)c(-c3ccc(Cl)cc3)c3c(N)ncnc32)C1)C1CC1 [Compound 38, (R,E)-1-(3-(4-amino-6-chloro-5-(4-chlorophenyl)-7H-pyrrolo[2,3-d]pyrimidin-7-yl)pyrrolidin-1-yl)-4-(cyclopropyl(methyl)amino)but-2-en-1-one] | < 100 nM | 1000 to 10000 nM | –
CN(C/C=C/C(=O)N1CC[C@@H](n2c(F)c(-c3ccc(Oc4ccccc4)cc3)c3c(N)ncnc32)C1)C1CC1 [Compound 5, (R,E)-1-(3-(4-amino-6-fluoro-5-(4-phenoxyphenyl)-7H-pyrrolo[2,3-d]pyrimidin-7-yl)pyrrolidin-1-yl)-4-(cyclopropyl(methyl)amino)but-2-en-1-one] | < 100 nM | < 100 nM | 1000 to 10000 nM
COc1cc(-c2c(Cl)n(-c3cccc(N(C)C(=O)/C=C/CN(C)C4CC4)c3)c3ncnc(N)c23)ccc1C [Compound 36, (E)-N-(3-(4-amino-6-chloro-5-(3-methoxy-4-methylphenyl)-7H-pyrrolo[2,3-d]pyrimidin-7-yl)phenyl)-4-(cyclopropyl(methyl)amino)-N-methylbut-2-enamide] | < 100 nM | 1000 to 10000 nM | 1000 to 10000 nM
Cc1c(-c2ccc(Oc3ccccc3)cc2)c2c(N)ncnc2n1[C@@H]1CCN(C(=O)/C=C/CN(C)[C@@H]2CCOC2)C1 [Compound 130, (E)-1-((R)-3-(4-amino-6-methyl-5-(4-phenoxyphenyl)-7H-pyrrolo[2,3-d]pyrimidin-7-yl)pyrrolidin-1-yl)-4-(methyl((R)-tetrahydrofuran-3-yl)amino)but-2-en-1-one] | < 100 nM | – | –
CN(C/C=C/C(=O)N1CC[C@@H](n2c(C#N)c(-c3ccc(Oc4ccccc4)cc3)c3c(N)ncnc32)C1)C1CC1 [Compound 103, (R,E)-4-amino-7-(1-(4-(cyclopropyl(methyl)amino)but-2-enoyl)pyrrolidin-3-yl)-5-(4-phenoxyphenyl)-7H-pyrrolo[2,3-d]pyrimidine-6-carbonitrile] | < 100 nM | – | –
Cc1c(-c2ccc(Oc3ccccc3)cc2)c2c(N)ncnc2n1C1CCN(C(=O)/C=C/CN(C)C2CC2)CC1 [Compound 67, (E)-1-(4-(4-amino-6-methyl-5-(4-phenoxyphenyl)-7H-pyrrolo[2,3-d]pyrimidin-7-yl)piperidin-1-yl)-4-(cyclopropyl(methyl)amino)but-2-en-1-one] | < 100 nM | – | –
COCCN(C)C/C=C/C(=O)N1CC[C@@H](n2c(C#N)c(-c3ccc(Oc4ccccc4)cc3)c3c(N)ncnc32)C1 [Compound 104, (R,E)-4-amino-7-(1-(4-((2-methoxyethyl)(methyl)amino)but-2-enoyl)pyrrolidin-3-yl)-5-(4-phenoxyphenyl)-7H-pyrrolo[2,3-d]pyrimidine-6-carbonitrile] | < 100 nM | – | –
CN(C/C=C/C(=O)N1CC[C@@H](n2c(-c3ncco3)c(-c3ccc(Oc4ccccc4)cc3)c3c(N)ncnc32)C1)C1CC1 [Compound 124, (R,E)-1-(3-(4-amino-6-(oxazol-2-yl)-5-(4-phenoxyphenyl)-7H-pyrrolo[2,3-d]pyrimidin-7-yl)pyrrolidin-1-yl)-4-(cyclopropyl(methyl)amino)but-2-en-1-one] | < 100 nM | – | –
CN(C/C=C/C(=O)N1CC[C@@H](n2c(C#N)c(-c3ccc(Oc4ccccc4)cc3)c3c(N)ncnc32)C1)[C@H]1CCOC1 [Compound 106, 4-amino-7-((R)-1-((E)-4-(methyl((S)-tetrahydrofuran-3-yl)amino)but-2-enoyl)pyrrolidin-3-yl)-5-(4-phenoxyphenyl)-7H-pyrrolo[2,3-d]pyrimidine-6-carbonitrile] | < 100 nM | – | –
COCCN(C)C/C=C/C(=O)N1CC[C@@H](n2c(F)c(-c3ccc(Oc4ccccc4)cc3)c3c(N)ncnc32)C1 [Compound 49, (R,E)-1-(3-(4-amino-6-fluoro-5-(4-phenoxyphenyl)-7H-pyrrolo[2,3-d]pyrimidin-7-yl)pyrrolidin-1-yl)-4-((2-methoxyethyl)(methyl)amino)but-2-en-1-one] | < 100 nM | – | –
CN(C/C=C/C(=O)N1CC[C@@H](n2c(Cl)c(-c3ccc(Oc4cccc(F)c4)cc3)c3c(N)ncnc32)C1)C1CC1 [Compound 60, (R,E)-1-(3-(4-amino-6-chloro-5-(4-(3-fluorophenoxy)phenyl)-7H-pyrrolo[2,3-d]pyrimidin-7-yl)pyrrolidin-1-yl)-4-(cyclopropyl(methyl)amino)but-2-en-1-one] | < 100 nM | – | –
CN(C/C=C/C(=O)N1CC[C@@H](n2c(C3CC3)c(-c3ccc(Oc4ccccc4)cc3)c3c(N)ncnc32)C1)C1CC1 [Compound 94, (R,E)-1-(3-(4-amino-6-cyclopropyl-5-(4-phenoxyphenyl)-7H-pyrrolo[2,3-d]pyrimidin-7-yl)pyrrolidin-1-yl)-4-(cyclopropyl(methyl)amino)but-2-en-1-one] | < 100 nM | – | –
CN(C/C=C/C(=O)N1CC[C@@H](n2c(C3CC3)c(-c3ccc(Oc4cccc(F)c4)cc3)c3c(N)ncnc32)C1)C1CC1 [Compound 99, (R,E)-1-(3-(4-amino-6-cyclopropyl-5-(4-(3-fluorophenoxy)phenyl)-7H-pyrrolo[2,3-d]pyrimidin-7-yl)pyrrolidin-1-yl)-4-(cyclopropyl(methyl)amino)but-2-en-1-one] | 100 to 1000 nM | – | –
CN(C)C/C=C/C(=O)N1CC[C@@H](n2c(C3CC3)c(-c3ccc(Oc4ccccc4)cc3)c3c(N)ncnc32)C1 [Compound 100, (R,E)-1-(3-(4-amino-6-cyclopropyl-5-(4-phenoxyphenyl)-7H-pyrrolo[2,3-d]pyrimidin-7-yl)pyrrolidin-1-yl)-4-(dimethylamino)but-2-en-1-one] | < 100 nM | – | –
